Test results published in patent US8426447B2, “Spiro-tricyclic ring compounds as beta-secretase modulators and methods of use” (Amgen Inc., priority 2008, dated 2013).
Each block holds one compound with its values, some of them ahead of it.

Experiments:
[1] = biological target: T1, BACE1 (Homo sapiens, UniProt P56817); experiment: In Vitro BACE Cell-based Assay (HEK cell assay): Aβ40 in conditioned medium of cells stably expressing Amyloid Precursor Protein, sandwich ELISA
Protocol: In Vitro BACE Cell-based Assay
The cell-based assay measures inhibition or reduction of Aβ40 in conditioned medium of test compound treated cells expressing amyloid precursor protein.
Cells stably expressing Amyloid Precursor Protein (APP) were plated at a density of 40K cells/well in 96 well plates (Costar). The cells were cultivated for 24 hours at 37° C. and 5% CO2 in DMEM supplemented with 10% FBS. The test compounds were then added to cells in 10-point dose response concentrations with the starting concentration being either 100 μM or 10 μM. The compounds were diluted from stock solutions in DMSO and the final DMSO concentration of the test compounds on cells was 0.1%. After 24 h of incubation with the test compounds the supernatant conditioned media was collected and the Aβ 40 levels were determined using a sandwich ELISA. The IC50 of the compound was calculated from the percent of control or percent inhibition of Aβ 40 as a function of the concentration of the test compound.
The sandwich ELISA to detect Aβ 40 was performed in 96 well microtiter plates, which were pre-treated with goat anti-rabbit IgG (Pierce). The capture and detecting antibody pair that were used to detect Aβ 40 from cell supernatants were affinity purified pAb40 (Biosource) and biotinylated 6E10 (Signet Labs Inc.), respectively. The optimal concentration for the pAb40 antibody was 3 μg/ml in Superblock/TBS (Pierce) that was supplemented with 0.05% Tween 20 (Sigma).
Cellular supernatants were incubated with the capture antibody for 3 h at 4° C., followed by 3 wash steps in TBS-tween (0.05%). The detecting antibody incubation was for 2 h at 4° C., again followed by the wash steps as described previously. The final readout of the ELISA is Time-Resolved Fluorescence (counts per minute) using Delfia reagents Streptavidin-Europium and Enhancement solutions (Perkin Elmer) and the Victor 2 multilabel counter (Perkin Elmer).

[2] = biological target: T1, BACE1; experiment: In Vitro Enzymatic BACE FRET (Fluorescence Resonance Energy Transfer) Assay; format: biochemical
Protocol: In Vitro Enzymatic BACE FRET (Fluorescence Resonance Energy Transfer) Assay (Enzyme Assay Data in the Example Tables I, II, III & IV) The assay buffer used in this screen is 0.05 M acetate, pH 4.2, 10% DMSO final, 100 uM genapol (which is a nonionic detergent, below its Critical Micelle Concentration). […] This assay is effectively started by the addition of FRET substrate (50 nM) and the combination is incubated for one hour. The FRET assay is terminated with by addition of Tris buffer, which raises the pH to neutrality, and the fluorescence is determined. The FRET substrate is a peptide with commercially available fluorophore and quencher, on opposite sides of the BACE cleavage site. […]

[3] = HEK cell-based assay, Aβ40 in conditioned medium, IC50 class symbols, read-out: HEK cell assay
[4] = in vitro BACE FRET enzyme assay, IC50 class symbols, read-out: BACE1 FRET assay
[5] = HEK cells, read-out: HEK cell assay
[6] = Table IV, class symbols, read-out: HEK cell assay
[7] = Table IV, class symbols, read-out: BACE1 FRET assay
[8] = Table III, IC50's in uM ranges, read-out: HEK cell assay
[9] = Table III, IC50's in uM ranges, read-out: BACE1 FRET assay

T1 sequence (P56817 46-501, species assumed): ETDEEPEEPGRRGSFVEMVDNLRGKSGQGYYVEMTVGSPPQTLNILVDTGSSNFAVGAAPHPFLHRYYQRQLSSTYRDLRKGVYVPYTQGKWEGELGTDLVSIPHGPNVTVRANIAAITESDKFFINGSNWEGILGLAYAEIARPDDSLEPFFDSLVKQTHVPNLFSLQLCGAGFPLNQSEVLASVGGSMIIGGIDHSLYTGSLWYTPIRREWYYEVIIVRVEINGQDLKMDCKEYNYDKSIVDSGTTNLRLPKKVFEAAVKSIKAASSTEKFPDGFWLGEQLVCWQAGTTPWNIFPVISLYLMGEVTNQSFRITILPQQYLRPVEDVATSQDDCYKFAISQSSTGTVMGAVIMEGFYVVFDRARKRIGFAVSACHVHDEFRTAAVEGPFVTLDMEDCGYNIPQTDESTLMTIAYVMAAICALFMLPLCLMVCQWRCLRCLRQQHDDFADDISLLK

IC50 [1, 3]: < 0.1 µM | IC50 [2, 4]: < 0.1 µM
Compound: CC1(COc2cnc3c(c2)[C@]2(COC(N)=N2)c2cc(-c4c(F)cccc4F)ccc2O3)COC1 [compound 411]

IC50 [1, 5]: < 0.1 µM | IC50 ([2]; read-out: BACE1 FRET assay): < 0.1 µM
Compound: NC1=N[C@@]2(CO1)c1cc(-c3cc(Cl)ccc3F)ccc1Oc1cnc(C3=CCOCC3)cc12 [compound 424]

IC50 [1, 6]: 1 to 5 µM | IC50 [2, 7]: 0.1 to 1 µM
Compound: Cn1cc(-c2ccc3c(c2)[C@]2(COC(N)=N2)c2cc(Br)ccc2O3)cn1 [compound 638]

IC50 [1, 5]: < 0.1 µM | IC50 ([2]; read-out: BACE1 FRET assay): < 0.1 µM
Compound: CC1(C)C=C(c2cc3c(cn2)Oc2ccc(-c4cccnc4)cc2[C@@]32COC(N)=N2)CCO1 [compound 437, (5S)-3-(6,6-dimethyl-3,6-dihydro-2H-pyran-4-yl)-7-(3-pyridinyl)spiro[chromeno[2,3-c]pyridine-5,4′-[1,3]oxazol]-2′-amine]

IC50 [1, 6]: 0.1 to 1 µM | IC50 [2, 7]: < 0.1 µM
Compound: CC(C)(C)COc1ccc2c(c1)[C@]1(COC(N)=N1)c1cc(C3CCCCC3)ccc1O2 [compound 802]

IC50 ([1]; read-out: HEK cell assay): < 0.1 µM | IC50 ([2]; read-out: BACE1 FRET assay): < 0.1 µM
Compound: CC(C)(C)C#Cc1cnc2c(c1)[C@]1(COC(N)=N1)c1cc(-c3ccc(F)nc3)ccc1O2 [compound 766]

IC50 ([1]; read-out: HEK cell assay): < 0.1 µM | IC50 ([2]; read-out: BACE1 FRET assay): < 0.1 µM
Compound: NC1=N[C@@]2(CO1)c1cc(-c3cccnc3)ccc1Oc1cnc(C3=CCOCC3)cc12 [compound 790]

IC50 [1, 3]: 0.1 to 1 µM | IC50 [2, 4]: < 0.1 µM
Compound: NC1=N[C@@]2(CO1)c1cc(-c3cccnc3N3CCOCC3)ccc1Oc1cnc(N3CCOCC3)cc12 [compound 336]

IC50 ([1]; HEK cell assay (uM), HEK cells): < 0.1 µM | IC50 ([2]; BACE1 FRET assay (uM)): < 0.1 µM
Compound: Cc1cc(-c2cc3c(cn2)Oc2ccc(-c4cccnc4F)cc2[C@@]32COC(N)=N2)ccn1 [compound 429]

IC50 [1, 5]: < 0.1 µM | IC50 ([2]; read-out: BACE1 FRET assay): < 0.1 µM
Compound: CC1(C#Cc2cnc3c(c2)[C@]2(COC(N)=N2)c2cc(-c4ccccc4F)ccc2O3)COC1 [compound 520]

IC50 [1, 6]: > 5 µM | IC50 [2, 7]: > 5 µM
Compound: COc1ccc2c(c1)[C@@]1(COC(N)=N1)c1c(ccc(-c3cncnc3)c1F)O2 [compound 816]

IC50 [1, 5]: < 0.1 µM | IC50 ([2]; read-out: BACE1 FRET assay): < 0.1 µM
Compound: NC1=N[C@@]2(CO1)c1cc(-c3cc(F)ccc3F)ccc1Oc1ncc(N3C[C@@H]4C[C@H]3CO4)cc12 [compound 453]

IC50 [1, 3]: < 0.1 µM | IC50 [2, 4]: < 0.1 µM
Compound: CC(C)(C)/C=C/c1ccc2c(n1)[C@]1(COC(N)=N1)c1cc(-c3cccnc3)ccc1O2 [compound 398]

IC50 [1, 8]: 0.1 to 1 µM | IC50 [2, 9]: > 5 µM
Compound: NC1=N[C@@]2(CO1)c1cc(Br)ccc1Oc1ccc(Oc3ccccn3)cc12 [compound 206]

IC50 [1, 5]: > 5 µM | IC50 ([2]; read-out: BACE1 FRET assay): 0.1 to 1 µM
Compound: NC1=N[C@@]2(CO1)c1cc(-c3ccccc3F)ccc1Oc1cnc(Cl)cc12 [compound 425]

IC50 [1, 8]: 0.1 to 1 µM | IC50 [2, 9]: < 0.1 µM
Compound: COC(C)(C)C#Cc1ccc2c(c1)[C@@]1(COC(N)=N1)c1cc(-c3cccnc3)cnc1O2 [compound 179]

IC50 [1, 8]: 1 to 5 µM | IC50 [2, 9]: 0.1 to 1 µM
Compound: NC1=N[C@@]2(CO1)c1cc(-c3cccnc3)ccc1Oc1ncc(-c3cccnc3)cc12 [compound 203]

IC50 ([1]; read-out: HEK cell assay): < 0.1 µM | IC50 ([2]; read-out: BACE1 FRET assay): < 0.1 µM
Compound: NC1=N[C@@]2(CO1)c1cc(-c3cncnc3)ccc1Oc1ccc(-c3ccc(F)nc3)cc12 [compound 991]

IC50 [1, 5]: 1 to 5 µM | IC50 ([2]; read-out: BACE1 FRET assay): 0.1 to 1 µM
Compound: NC1=N[C@@]2(CO1)c1cc(-c3cncnc3)ccc1Oc1cnc(Cl)cc12 [compound 500]

IC50 [1, 8]: 0.1 to 1 µM | IC50 [2, 9]: < 0.1 µM
Compound: CC(C)(C)CCc1ccc2c(c1)[C@@]1(COC(N)=N1)c1cc(-c3ccc(F)nc3)ccc1O2 [153a]

IC50 [1, 3]: 1 to 5 µM | IC50 [2, 4]: 0.1 to 1 µM
Compound: COc1ccc2c(c1)[C@]1(COC(N)=N1)c1cc(NC(=O)COc3ccccc3)ccc1O2 [compound 374]

IC50 [1, 6]: > 5 µM | IC50 [2, 7]: 0.1 to 1 µM
Compound: Cn1ccc2cc(-c3ccc4c(c3)[C@@]3(COC(N)=N3)c3cc(OCC(C)(C)C)ccc3O4)ccc21 [compound 914]
